Like-named read-outs stand apart in the source and are kept apart here.
How the values were obtained:
[1] = target: T1, Recombinant STAT6 protein (STAT6 (W123-T658)) (Homo sapiens, UniProt P42226); test: STAT6 Fluorescence Polarization (FP) Assay; format: binding; conditions: probe 5-FAM-Ap[…]-NH2 2 nM, 45-minute incubation
T1 construct: Recombinant STAT6 protein (STAT6 (W123-T658))
T1 sequence (P42226 123-658): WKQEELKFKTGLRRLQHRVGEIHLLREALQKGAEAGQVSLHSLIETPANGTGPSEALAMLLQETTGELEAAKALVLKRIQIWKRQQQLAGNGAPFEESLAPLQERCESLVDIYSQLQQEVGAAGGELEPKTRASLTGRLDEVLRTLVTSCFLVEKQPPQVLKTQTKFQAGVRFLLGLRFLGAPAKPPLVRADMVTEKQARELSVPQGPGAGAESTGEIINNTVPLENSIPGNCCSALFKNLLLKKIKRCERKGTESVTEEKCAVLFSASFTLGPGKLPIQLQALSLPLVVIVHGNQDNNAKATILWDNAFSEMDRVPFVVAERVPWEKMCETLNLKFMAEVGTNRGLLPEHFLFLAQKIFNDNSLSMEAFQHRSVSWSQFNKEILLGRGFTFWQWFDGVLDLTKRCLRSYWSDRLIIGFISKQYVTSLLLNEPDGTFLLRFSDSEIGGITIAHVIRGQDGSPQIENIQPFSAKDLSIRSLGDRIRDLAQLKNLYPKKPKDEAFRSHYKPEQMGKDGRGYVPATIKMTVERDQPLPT
In short: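 Displacement of a fluorescent phosphotyrosine peptide (2 nM) from 250 nM STAT6 (W123-T658) is measured by polarization after a 45-minute room-temperature incubation. Compounds are titrated serially at 1% DMSO, and IC50 values derive from regression of mP on log concentration.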

[2] = target: T2, Recombinant STAT3 protein (STAT3 (G127-I722)) (Homo sapiens, UniProt P40763); test: STAT3 Fluorescence Polarization (FP) Assay; format: binding; conditions: probe 5-FAM-GpYLPQTV-NH2 2 nM, 45-minute incubation
T2 construct: Recombinant STAT3 protein (STAT3 (G127-I722))
T2 sequence (P40763 127-722): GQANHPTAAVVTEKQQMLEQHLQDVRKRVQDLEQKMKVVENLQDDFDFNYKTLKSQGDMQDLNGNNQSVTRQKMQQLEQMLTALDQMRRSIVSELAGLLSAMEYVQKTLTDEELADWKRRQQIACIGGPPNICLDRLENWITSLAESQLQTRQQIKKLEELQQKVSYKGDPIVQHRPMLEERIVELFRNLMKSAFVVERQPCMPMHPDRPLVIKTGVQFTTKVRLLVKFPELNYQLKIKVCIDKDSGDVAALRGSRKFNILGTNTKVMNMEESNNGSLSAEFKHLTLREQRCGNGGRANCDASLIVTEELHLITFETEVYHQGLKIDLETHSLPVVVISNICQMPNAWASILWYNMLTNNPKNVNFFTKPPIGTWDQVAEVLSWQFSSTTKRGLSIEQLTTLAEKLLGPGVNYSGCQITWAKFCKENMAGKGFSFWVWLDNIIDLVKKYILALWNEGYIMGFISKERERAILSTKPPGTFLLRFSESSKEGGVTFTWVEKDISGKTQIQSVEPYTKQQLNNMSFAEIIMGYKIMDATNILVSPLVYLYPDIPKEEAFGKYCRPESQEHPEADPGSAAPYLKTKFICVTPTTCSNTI
In short: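 Compounds in serial dilution receive a premix of STAT3 (G127-I722, 25 nM) and fluorescent phosphotyrosine peptide 5-FAM-GpYLPQTV-NH2 (2 nM) at pH 7.4. After 45 min at room temperature, FP is measured and IC50 derived by nonlinear regression.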

[3] = STAT6 (W123-T658) 250 nM, read-out: STAT6 (FP assay IC50 class)
[4] = STAT3 (G127-I722) 25 nM, read-out: STAT3 (FP assay IC50 class)

Row | IC50 [1, 3] | IC50 [2, 4] | IC50 ([1]; STAT6 250 nM, read-out: STAT6 (FP assay IC50)) | IC50 ([2]; STAT3 25 nM, read-out: STAT3 (FP assay IC50)) | Structure (SMILES)
1 | 3000 to 30000 nM | < 100 nM | – | – | CNc1ccncc1C1CN(C(=O)[C@@H]2CC[C@@H]3CCC[C@H](NC(=O)c4cc5cc(CP(=O)(O)O)ccc5s4)C(=O)N32)C1 [Compound 606, ((2-(((3S,6S,9aS)-3-(3-(4-(methylamino)pyridin-3-yl)azetidine-1-carbonyl)-5-oxooctahydro-1H-pyrrolo[1,2-a]azepin-6-yl)carbamoyl)benzo [b]thiophen-5-yl)methyl) phosphonic acid]
2 | 3000 to 30000 nM | 1000 to 10000 nM | – | – | O=C(N[C@H]1CCC[C@H]2CC[C@@H](C(=O)N3CC(c4cnccc4Cl)C3)N2C1=O)c1cc2cc(CP(=O)(O)O)ccc2s1 [Compound 519, ((2-(((3S,6S,9aS)-3-(3-(4-chloropyridin-3-yl)azetidine-1-carbonyl)-5-oxooctahydro-1H-pyrrolo[1,2-a]azepin-6-yl)carbamoyl)benzo[b]thiophen-5-yl)methyl)phosphonic acid]
3 | 3000 to 30000 nM | 100 to 1000 nM | – | – | COC1(c2nccn2C)CN(C(=O)[C@@H]2CC[C@@H]3CCC4(CC4)C[C@H](NC(=O)c4cc5cc(C(F)(F)P(=O)(O)O)ccc5s4)C(=O)N32)C1 [Compound 768, (difluoro(2-(((3′S,6′S,10a′S)-3′-(3-methoxy-3-(1-methyl-1H-imidazol-2-yl)azetidine-1-carbonyl)-5′-oxooctahydro-5′H-spiro[cyclopropane-1,8′-pyrrolo[1,2-a]azocin]-6′-yl)carbamoyl)benzo [b]thiophen-5-yl)methyl) phosphonic acid]
4 | 3000 to 30000 nM | < 100 nM | – | – | O=C(N[C@H]1CCC[C@H]2CC[C@@H](C(=O)N3CC(c4cnccc4OCc4ccncc4)C3)N2C1=O)c1cc2cc(C(F)P(=O)(O)O)ccc2s1 (stereo partly drawn) [Compound 705, (fluoro(2-(((3S,6S,9aS)-5-oxo-3-(3-(4-(pyridin-4-ylmethoxy)pyridin-3-yl)azetidine-1-carbonyl)octahydro-1H-pyrrolo[1,2-a]azepin-6-yl)carbamoyl)benzo [b]thiophen-5-yl)methyl) phosphonic acid]
5 | ≤ 300 nM | 1000 to 10000 nM | – | – | N#C[C@@H]1[C@@H](c2ccccc2)CN(C(=O)[C@@H]2CC[C@@H]3CCC[C@H](NC(=O)c4cc5cc([C@H](F)P(=O)(O)O)ccc5s4)C(=O)N32)C12CC2 (single isomer, unassigned) [Compound 919]
6 | – | – | ≤ 300 nM | 100 to 1000 nM | C[C@@]1(O)CC[C@H]2CC[C@@H](C(=O)N3C[C@H](c4ccccc4)[C@@H](C#N)C3)N2C(=O)[C@@H](NC(=O)c2cc3cc(C(F)(F)P(=O)(O)O)ccc3s2)C1 (single isomer, unassigned) [Compound 14, ((2-(((3S,6S,8R,10aR)-3-((3R,4S or 3S,4R)-3-cyano-4-phenylpyrrolidine-1-carbonyl)-8-hydroxy-8-methyl-5-oxodecahydropyrrolo [1,2-a]azocin-6-yl)carbamoyl)benzo[b]thiophen-5-yl)difluoromethyl) phosphonic acid]
7 | 3000 to 30000 nM | 1000 to 10000 nM | – | – | COc1ccnc(F)c1C1CN(C(=O)[C@@H]2CC[C@@H]3CCC[C@H](NC(=O)c4cc5cc(CP(=O)(O)O)ccc5s4)C(=O)N32)C1 [Compound 578, ((2-(((3S,6S,9aS)-3-(3-(2-fluoro-4-methoxypyridin-3-yl)azetidine-1-carbonyl)-5-oxooctahydro-1H-pyrrolo[1,2-a]azepin-6-yl)carbamoyl)benzo[b]thiophen-5-yl)methyl)phosphonic acid]
8 | 3000 to 30000 nM | 1000 to 10000 nM | – | – | Cc1nccnc1C1CN(C(=O)[C@@H]2CC[C@@H]3CCC[C@H](NC(=O)c4cc5cc(CP(=O)(O)O)ccc5s4)C(=O)N32)C1 [Compound 649, ((2-(((3S,6S,9aS)-3-(3-(3-methylpyrazin-2-yl)azetidine-1-carbonyl)-5-oxooctahydro-1H-pyrrolo[1,2-a]azepin-6-yl)carbamoyl)benzo [b]thiophen-5-yl)methyl) phosphonic acid]
9 | 3000 to 30000 nM | 100 to 1000 nM | – | – | COc1c(C2CN(C(=O)[C@@H]3CC[C@@H]4CCC[C@H](NC(=O)c5cc6cc([C@@H](F)P(=O)(O)O)ccc6s5)C(=O)N43)C2)ccnc1Cl (single isomer, unassigned) [Compound 698]
10 | ≤ 300 nM | 1000 to 10000 nM | – | – | N#C[C@H]1[C@H](c2ccccc2)CN(C(=O)[C@@H]2CC[C@@H]3CCC[C@H](NC(=O)c4cc5cc([C@H](F)P(=O)(O)O)ccc5s4)C(=O)N32)C12CC2 (single isomer, unassigned) [Compound 916]
11 | 3000 to 30000 nM | 100 to 1000 nM | – | – | CC(C)C1(c2ccccc2)CN(C(=O)[C@@H]2CC[C@@H]3CCC[C@H](NC(=O)c4cc5cc(C(F)(F)P(=O)(O)O)ccc5s4)C(=O)N32)C1 [Compound 784, (difluoro(2-(((3S,6S,9aS)-3-(3-isopropyl-3-phenylazetidine-1-carbonyl)-5-oxooctahydro-1H-pyrrolo[1,2-a]azepin-6-yl)carbamoyl)benzo [b]thiophen-5-yl)methyl) phosphonic acid]
12 | 3000 to 30000 nM | 100 to 1000 nM | – | – | COc1nn(C)cc1C1CN(C(=O)[C@@H]2CC[C@@H]3CCC[C@H](NC(=O)c4cc5cc(C(F)P(=O)(O)O)ccc5s4)C(=O)N32)C1 (stereo partly drawn) [Compound 714, (fluoro(2-(((3S,6S,9aS)-3-(3-(3-methoxy-1-methyl-1H-pyrazol-4-yl)azetidine-1-carbonyl)-5-oxooctahydro-1H-pyrrolo[1,2-a]azepin-6-yl)carbamoyl)benzo [b]thiophen-5-yl)methyl) phosphonic acid]
13 | 300 to 3000 nM | 100 to 1000 nM | – | – | O=C(N[C@H]1CCCC[C@H]2CC[C@@H](C(=O)N3Cc4ccncc4C3)N2C1=O)c1cc2cc(C(F)(F)P(=O)(O)O)ccc2s1 [Compound 789, ((2-(((3S,6S,10aS)-3-(2,3-dihydro-1H-pyrrolo[3,4-c]pyridine-2-carbonyl)-5-oxodecahydropyrrolo [1,2-a]azocin-6-yl)carbamoyl)benzo [b]thiophen-5-yl)difluoromethyl) phosphonic acid]
14 | 300 to 3000 nM | 100 to 1000 nM | – | – | C[C@H]1C[C@H]2CC[C@@H](C(=O)N3C[C@@H](C#N)[C@H](c4ccccc4)C3)N2C(=O)[C@@H](NC(=O)c2cc3cc(C(F)(F)P(=O)(O)O)ccc3s2)C1 (single isomer, unassigned) [Compound 782]
15 | 3000 to 30000 nM | < 100 nM | – | – | O=C(N[C@H]1CCC[C@H]2CC[C@@H](C(=O)N3CC(c4cncnc4O)C3)N2C1=O)c1cc2cc(CP(=O)(O)O)ccc2s1 [Compound 605, ((2-(((3S,6S,9aS)-3-(3-(4-hydroxypyrimidin-5-yl)azetidine-1-carbonyl)-5-oxooctahydro-1H-pyrrolo[1,2-a]azepin-6-yl)carbamoyl)benzo [b]thiophen-5-yl)methyl) phosphonic acid]
16 | 3000 to 30000 nM | 100 to 1000 nM | – | – | O=C(N[C@H]1CC[C@H]2CC[C@@H](C(=O)N3CC(c4ccccn4)C3)N2C1=O)c1cc2cc(C(F)(F)P(=O)(O)O)ccc2s1 [Compound 728, (difluoro(2-(((3S,6S,8aS)-5-oxo-3-(3-(pyridin-2-yl)azetidine-1-carbonyl)octahydroindolizin-6-yl)carbamoyl)benzo [b]thiophen-5-yl)methyl) phosphonic acid]
17 | 3000 to 30000 nM | 100 to 1000 nM | – | – | O=C(N[C@H]1CCC[C@H]2CC[C@@H](C(=O)N3CC(c4cccnc4C(F)F)C3)N2C1=O)c1cc2cc(CP(=O)(O)O)ccc2s1 [Compound 562, ((2-(((3S,6S,9aS)-3-(3-(2-(difluoromethyl)pyridin-3-yl)azetidine-1-carbonyl)-5-oxooctahydro-1H-pyrrolo[1,2-a]azepin-6-yl)carbamoyl)benzo[b]thiophen-5-yl)methyl)phosphonic acid]
18 | 300 to 3000 nM | 1000 to 10000 nM | – | – | O=C(N[C@H]1CCCC[C@H]2CC[C@@H](C(=O)N3CCc4[nH]ncc4C3)N2C1=O)c1cc2cc(C(F)(F)P(=O)(O)O)ccc2s1 [Compound 802, (difluoro(2-(((3S,6S,10aS)-5-oxo-3-(4,5,6,7-tetrahydro-1H-pyrazolo[4,3-c]pyridine-5-carbonyl)decahydropyrrolo[1,2-a]azocin-6-yl)carbamoyl)benzo [b]thiophen-5-yl)methyl) phosphonic acid]
